Measured values published in paper PMC11249646, “Small-Molecule Disruptors of the Interaction between Calcium- and Integrin-Binding Protein 1 and Integrin αIIbβ3 as Novel Antiplatelet Agents” (ACS Pharmacology & Translational Science, 2024).
Like-named read-outs stand apart in the source and are kept apart here.

Biological target: T1, CIB1 and αIIb interaction (CIB1-GST : F-αIIb peptide) (Homo sapiens, UniProt Q99828)
T1 construct: made in house; host or cells: BL-21 plus RIL cells (E. coli)
T1 sequence (Q99828 1-191): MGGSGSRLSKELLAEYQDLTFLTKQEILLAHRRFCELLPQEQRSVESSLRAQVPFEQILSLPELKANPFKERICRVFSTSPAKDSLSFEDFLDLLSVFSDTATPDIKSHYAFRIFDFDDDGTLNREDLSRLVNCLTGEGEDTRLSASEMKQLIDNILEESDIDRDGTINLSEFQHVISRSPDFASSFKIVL
Assay: FP assay, 1536-well qHTS format (primary and confirmatory screen)
Type: binding
Details: for Efficacy (%): negative = inhibition; for Curve Class: negative sign = inhibitory curve; for IC50: read-out: IC50

[1] = qHTS primary screen hits, Table S2
[2] = qHTS primary screen hits, Table S2, several classes where COUNT > 1
[3] = qHTS FP screen hits, Table S2, one class per curve where COUNT > 1
[4] = qHTS primary screen of LOPAC/NPACT libraries

Row | Efficacy (%) [1] | IC50 [1] | Efficacy (%) [4] | Curve Class [4] | IC50 [4] | Compound | also measured
1 | -52% | 50.1 µM | – | – | – | Cl.O=c1cc(N2CCOCC2)oc2c(-c3ccccc3)cccc12 [NCGC00261395-01] | Curve Class [1]: -2.2
2 | – | – | -26% | -2.4 | 39.8 µM | CC1(C)CCC(CN2CCN(c3ccc(C(=O)NS(=O)(=O)c4ccc(NCC5CCOCC5)c([N+](=O)[O-])c4)c(Oc4cnc5[nH]ccc5c4)c3)CC2)=C(c2ccc(Cl)cc2)C1 [NCGC00345789-10] | –
3 | – | – | -104% | -2.1 | 17.8 µM | CC1=C(C(=O)OC2CCCCC2)C(c2ccc([N+](=O)[O-])cc2)C2=C(CC(C)(C)CC2=O)N1 (stereo not shown) [NCGC00370923-11] | –
4 | – | – | -31% | -1.4 | 7.1 µM | N=C(N)c1ccc2c(c1)N/C(=C1/C=C(CC(=O)NC(CC(=O)O)C(=O)O)C=C(c3cc(S(N)(=O)=O)ccc3O)C1=O)N2 (stereo not shown) [NCGC00387860-01] | –
5 | -49% | 44.7 µM | – | – | – | N#C[C@@H]1C[C@@H]2C[C@@H]2N1C(=O)[C@@H](N)C12CC3CC(CC(O)(C3)C1)C2 [NCGC00242597-01] | Curve Class [2]: -2.2
6 | – | – | -18% | -2.4 | 31.6 µM | COc1cc(/C=C/c2ccccc2)c(C(=O)O)c(O)c1CC=C(C)C [NCGC00385333-01] | –

More lines, now with the values behind:

Row | Compound | Efficacy (%) [1] | IC50 [1] | Efficacy (%) [4] | Curve Class [4] | IC50 [4] | also measured
7 | O=C(O)C(F)(F)F.OCc1ccc(-c2ccc3ncnc(NCc4ncc[nH]4)c3c2)o1 [NCGC00188670-01] | -33% | 56.2 µM | – | – | – | Curve Class [2]: -2.4
8 | Cc1c2c(=O)n(-c3ccccc3)[nH]c2cc(=O)n1Cc1ccncc1.O=C(O)C(F)(F)F [NCGC00248478-01] | -31% | 50.1 µM | – | – | – | Curve Class [2]: -2.4
9 | C=C1C(=O)[C@@]23C(CC[C@@H]1[C@H]2O)[C@@]12CO[C@]3(O)[C@@H](O)[C@@H]1C(C)(C)CC[C@@H]2O (stereo partly shown) [NCGC00346595-01] | – | – | – | – | – | Efficacy (%) (qHTS FP screen hits, Table S2): -48%; IC50 (qHTS FP screen hits, Table S2): 33.3 µM
10 | CCc1oc2ccccc2c1C(=O)c1cc(Br)c(O)c(Br)c1 [NCGC00013895-18] | – | – | – | – | – | Efficacy (%) (qHTS FP screen hits, Table S2): -51%; Curve Class [3]: -2.2; IC50 (qHTS FP screen hits, Table S2): 34.9 µM
11 | Cc1ccc(C)n1-c1ccccc1C(=O)O.O=C(O)C(F)(F)F [NCGC00274054-01] | -40% | 50.1 µM | – | – | – | Curve Class [2]: -2.4
12 | O=C(c1cc(O)c(O)c([N+](=O)[O-])c1)c1ccccc1F [NCGC00015881-04] | – | – | -35% | -2.2 | 39.8 µM | –
13 | C=Cc1c(C)c2cc3[nH]c(cc4nc(cc5nc(cc1[nH]2)C(C)=C5CCC(=O)O)C(CCC(=O)O)=C4C)c(C)c3C=C [NCGC00015844-10] | – | – | – | – | – | Efficacy (%) (qHTS FP screen hits, Table S2): -75%; Curve Class [3]: -2.2; IC50 (qHTS FP screen hits, Table S2): 42.2 µM
14 | Cn1cnc2c1c(=O)[nH]c(=O)n2C [NCGC00016023-18] | -74% | 89.1 µM | – | – | – | Curve Class [2]: -3
15 | Nc1cccc2c(N)cccc12 [NCGC00091284-03] | -33% | 113 µM | – | – | – | –
16 | O=[N+]([O-])/C=C/c1ccc2c(c1)OCO2 [NCGC00186015-01] | – | – | -24% | -2.2 | 56.2 µM | –
17 | CCCCCCCCCCC/C=C\C(C)(C)/C=C\CCCC(=O)O [NCGC00015371-07] | – | – | -30% | -2.4 | 56.2 µM | –
